Reference: patent US20260103479A1, “PRODRUGS OF OPICAPONE” (BIAL- PORTELA & CA, S.A., priority 2022, published 2026)
In brackets after ≈: the same amount, converted by molar mass. Structures can show the parent of a compound that is named as a salt.

How the values were obtained:
[1] = physchem; settings: water, thermodynamic from solid, Solubility in pure water
[2] = Aqueous solubility in distilled (pure) water at room temperature; settings: thermodynamic from solid

solubility [2] [mg/mL]	Structure (SMILES)	solubility [1] [mg/mL]
–	Cc1c(Cl)c(C)[n+]([O-])c(Cl)c1-c1noc(-c2cc(OP(=O)(O)O)c(O)c([N+](=O)[O-])c2)n1 [Compound 3, 2,5-dichloro-3-(5-(4-hydroxy-3-nitro-5-(phosphonooxy)phenyl)-1,2,4-oxadiazol-3-yl)-4,6-dimethylpyridine 1-oxide, triammonia salt]	> 0.5
0.023 to 0.036 (≈ 55.7 to 87.1 µM)	Cc1c(Cl)c(C)[n+]([O-])c(Cl)c1-c1noc(-c2cc(O)c(O)c([N+](=O)[O-])c2)n1 [Opicapone, 2,5-dichloro-3-(5-(3,4-dihydroxy-5-nitrophenyl)-1,2,4-oxadiazol-3-yl)-4,6-dimethylpyridine 1-oxide]	–
